In the OligoGym collection:
HELM strings list units from the 5' end as sugar, base in round brackets, then linkage (d deoxyribose, r ribose, m 2'-O-methyl, p phosphodiester). Strings are as the collection lists them, not checked against the first reports. ss, as = sense and antisense strand

Settings: siRNA
Also: test system not given here.

Substance	target mRNA knockdown [%]
RNA1{m(A)p.r(A)p.m(A)p.r(G)p.m(G)p.r(G)p.m(G)p.r(A)p.m(G)p.r(U)p.m(U)p.r(G)p.m(C)p.r(U)p.m(G)p.r(G)p.m(A)p.r(A)p.m(G)p.r(T)p.r(T)}|RNA2{r(C)p.r(U)p.r(U)p.r(C)p.r(C)p.r(A)p.r(G)p.r(C)p.m(A)p.m(A)p.r(C)p.r(U)p.r(C)p.r(C)p.r(C)p.r(C)p.r(U)p.r(U)p.r(U)p.r(T)p.r(T)}$$$RNA1{StrandType:ss}|RNA2{StrandType:as}$	47
RNA1{m(A)p.r(A)p.m(C)p.r(A)p.m(G)p.r(C)p.m(C)p.r(U)p.m(U)p.r(A)p.m(C)p.r(C)p.m(C)p.r(C)p.m(G)p.r(A)p.m(U)p.r(U)p.m(C)p.r(T)p.r(T)}|RNA2{r(G)p.m(A)p.m(A)p.r(U)p.r(C)p.r(G)p.r(G)p.r(G)p.r(G)p.r(U)p.m(A)p.m(A)p.r(G)p.r(G)p.r(C)p.r(U)p.r(G)p.r(U)p.r(U)p.r(T)p.r(T)}$$$RNA1{StrandType:ss}|RNA2{StrandType:as}$	32
RNA1{m(A)p.r(A)p.m(C)p.r(A)p.m(G)p.r(U)p.m(C)p.r(C)p.m(U)p.r(U)p.r(A)p.m(G)p.r(C)p.m(U)p.r(A)p.r(C)p.m(G)p.r(C)p.r(U)p.r(T)p.r(T)}|RNA2{r(A)p.r(G)p.r(C)p.r(G)p.r(U)p.r(A)p.r(G)p.r(C)p.r(U)p.r(A)p.r(A)p.r(G)p.r(G)p.r(A)p.r(C)p.r(U)p.r(G)p.r(U)p.r(U)p.r(T)p.r(T)}$$$RNA1{StrandType:ss}|RNA2{StrandType:as}$	35
RNA1{m(A)p.r(A)p.m(C)p.r(U)p.m(U)p.r(C)p.m(U)p.r(G)p.m(G)p.r(G)p.m(A)p.r(G)p.m(C)p.r(C)p.m(U)p.r(C)p.m(C)p.r(A)p.m(A)p.r(T)p.r(T)}|RNA2{r(U)p.r(U)p.r(G)p.r(G)p.m(A)p.r(G)p.r(G)p.r(C)p.r(U)p.r(C)p.r(C)p.r(C)p.m(A)p.r(G)p.m(A)p.m(A)p.r(G)p.r(U)p.r(U)p.r(T)p.r(T)}$$$RNA1{StrandType:ss}|RNA2{StrandType:as}$	42
RNA1{m(A)p.r(A)p.m(G)p.r(G)p.m(A)p.r(A)p.m(C)p.r(G)p.m(G)p.r(G)p.m(G)p.r(A)p.m(C)p.r(A)p.m(C)p.r(U)p.m(U)p.r(A)p.m(C)p.r(T)p.r(T)}|RNA2{r(G)p.r(U)p.r(A)p.r(A)p.r(G)p.r(U)p.r(G)p.r(U)p.r(C)p.r(C)p.r(C)p.r(C)p.r(G)p.r(U)p.r(U)p.r(C)p.r(C)p.r(U)p.r(U)p.r(T)p.r(T)}$$$RNA1{StrandType:ss}|RNA2{StrandType:as}$	12
RNA1{m(A)p.r(A)p.m(G)p.r(G)p.m(A)p.r(C)p.m(C)p.r(U)p.m(A)p.r(G)p.m(A)p.r(G)p.m(G)p.r(A)p.m(G)p.r(U)p.m(C)p.r(A)p.m(C)p.r(T)p.r(T)}|RNA2{m(G)p.r(U)p.m(G)p.r(A)p.r(C)p.r(U)p.r(C)p.r(C)p.r(U)p.r(C)p.r(U)p.r(A)p.m(G)p.m(G)p.r(U)p.r(C)p.r(C)p.r(U)p.r(U)p.r(T)p.r(T)}$$$RNA1{StrandType:ss}|RNA2{StrandType:as}$	36
RNA1{m(A)p.r(A)p.m(G)p.r(G)p.m(A)p.r(G)p.m(A)p.r(U)p.m(C)p.r(A)p.m(A)p.r(C)p.m(A)p.r(U)p.m(U)p.r(U)p.m(U)p.r(C)p.m(A)p.r(T)p.r(T)}|RNA2{m(U)p.r(G)p.m(A)p.r(A)p.m(A)p.r(A)p.m(U)p.r(G)p.m(U)p.r(U)p.m(G)p.r(A)p.m(U)p.r(C)p.m(U)p.r(C)p.m(C)p.r(U)p.m(U)p.r(T)p.r(T)}$$$RNA1{StrandType:ss}|RNA2{StrandType:as}$	75
RNA1{m(A)p.r(A)p.m(G)p.r(G)p.m(A)p.r(G)p.m(A)p.r(U)p.m(C)p.r(A)p.m(A)p.r(C)p.m(A)p.r(U)p.m(U)p.r(U)p.m(U)p.r(C)p.m(A)p.r(T)p.r(T)}|RNA2{r(U)p.m(G)p.r(A)p.m(A)p.r(A)p.m(A)p.r(U)p.m(G)p.r(U)p.m(U)p.r(G)p.m(A)p.r(U)p.m(C)p.r(U)p.m(C)p.r(C)p.m(U)p.r(U)p.r(T)p.r(T)}$$$RNA1{StrandType:ss}|RNA2{StrandType:as}$	65
